Measured values as given in US12486489B2, “Culture medium for testing drug resistance of H.pylori as well as preparation method and use thereof” (priority 2022, dated 2025).

System: clinical H. pylori strain
Experiment: Drug resistance testing of clinical specimens on characteristic culture medium (discoloration after 36 hours)
Format: cell-based, Helicobacter pylori
Procedure: The characteristic culture media (A, B, C, D, E) are cultivated at a constant temperature of 37° C. for 36 hours in a three gas incubator. The characteristic culture media are removed and placed in a natural environment for 30 minutes to observe whether there are discolorations at the point of the culture medium where the specimen is dropped in. […] Another 100 μL of the specimen is taken and coated on Columbia solid culture medium and cultivated in a three gas incubator at a constant temperature of 37° C. for 3 days to 5 days. The number of colonies on the plate is counted to determine the initial inoculation amount. The micro dilution method is adopted to test the MIC of clinical specimen H. pylori, the test is meaningful only when there is no bacterial growth in the negative control well without bacteria and there is bacterial growth in the positive well with bacteria but without antibiotics.
(1) Transfer liquid preparation: after sterilization and cooling, BHI culture medium is added with 10% calf serum, followed by 30% glycerol to prepare H. pylori preservation solution. On this basis, 1% H. pylori selective additive is added to prepare the transfer liquid. 1 mL of transfer solution is taken into a sterile EP tube, and 6-8 sterilized small steel balls are poured into the EP tube for the subsequent use.
(3) Specimen acquisition: a biopsy tissue group is obtained from the gastric antrum and a small curvature side of the gastric body through a gastroscopy biopsy passage and placed into an EP tube (strictly sterile operation). The biopsy tissue is placed on the ice surface and transferred as soon as possible (within 2 hours) to complete the subsequent steps.
(4) Preparation of bacterial solution containing tissue: the EP tube containing tissue is placed in a homogenizer at 300 hz and crushed for 5 minutes, transferred to another EP, centrifuged at 12000 rpm for 2 minutes, the supernatant is discarded, BHI is resuspended to 200 μL, and a bacterial suspension is prepared for the subsequent use.
(5) Inoculation of bacterial solution: 10 μL of bacterial solution is taken and added dropwise to the characteristic culture medium (5 pieces in total). The characteristic culture medium is removed after cultivating in a three gas incubator at 37° C. for 36 hours, and the results are determined after leaving for 30 minutes; another 100 μL is taken and coated onto Colombian culture medium for the traditional bacterial culture.

[1] = clinical H. pylori strain FY-31
[2] = clinical H. pylori strain FY-43
[3] = clinical H. pylori strain FY-47
[4] = clinical H. pylori strain FY-52

| Compound | drug resistance determined on characteristic culture medium [1] | drug resistance determined on characteristic culture medium [2] | drug resistance determined on characteristic culture medium [3] | drug resistance determined on characteristic culture medium [4] |
| --- | --- | --- | --- | --- |
| CC1(C)S[C@@H]2[C@H](NC(=O)[C@H](N)c3ccc(O)cc3)C(=O)N2[C@H]1C(=O)O [Amoxicillin, amoxicillin] | sensitive | sensitive | sensitive | sensitive |
| CC[C@H]1OC(=O)[C@H](C)[C@@H](O[C@H]2C[C@@](C)(OC)[C@@H](O)[C@H](C)O2)[C@H](C)[C@@H](O[C@@H]2O[C@H](C)C[C@H](N(C)C)[C@H]2O)[C@](C)(OC)C[C@@H](C)C(=O)[C@H](C)[C@@H](O)[C@]1(C)O [Clarithromycin, clarithromycin] | sensitive | sensitive | sensitive | sensitive |
| Cc1ncc([N+](=O)[O-])n1CCO [Metronidazole, metronidazole] | sensitive | sensitive | resistant | sensitive |
